We go through eight molecules from ChEMBL document CHEMBL1208749 (2010).

SMILES strings stand for the structures.

This experiment relates to 3T3-L1. The experiment is described as follows: Glucose uptake enhancing activity in insulin-stimulated mouse 3T3L1 cells at 10 uM after 4 days by FLIPR based 2-DG uptake assay relative to control. It is filed as functional.

In the case of `O=c1c(-c2ccc(O)cc2)coc2c([C@@H]3O[C@H](CO)[C@@H](O)[C@H](O)[C@H]3O)c(O)ccc12` [PUERARIN], the “fold change (FC)” value was found to be 1.5.

Consider `O=c1c(-c2ccc(O)cc2)coc2cc(O)c([C@H]3O[C@@H](CO)[C@H](O)[C@@H](O)[C@@H]3O)c(O)c12`, for which the “fold change (FC)” value turned out to be 1.5.

In the case of `O=c1c(-c2ccc(O)cc2)coc2cc(O)ccc12` [DAIDZEIN], the “fold change (FC)” value is recorded as 1.5.

Regarding `O=C1c2c(O)cc(O)c([C@@H]3O[C@H](CO)[C@@H](O)[C@H](O)[C@H]3O)c2OCC1c1ccc(O)cc1` (stereo partly drawn), the “fold change (FC)” value amounted to 1.1.

`O=c1cc(-c2ccc(O)cc2)oc2c([C@@H]3O[C@H](CO)[C@@H](O)[C@H](O)[C@H]3O)c(O)cc(O)c12`: the fold change (FC) was 1.1.

Regarding `O=c1c(-c2ccc(O)cc2)coc2cc(O[C@@H]3O[C@H](CO)[C@@H](O)[C@H](O)[C@H]3O)ccc12` [DAIDZIN], the “fold change (FC)” value is reported as 1.15.

Turning to `O=c1c(-c2ccc(O)cc2)coc2c(CC(O)CO)c(O)ccc12` (stereo not drawn), the “fold change (FC)” value is listed as 1.5.

In the case of `O=c1c(-c2ccc(O[C@@H]3O[C@H](CO)[C@@H](O)[C@H](O)[C@H]3O)cc2)coc2cc(O)ccc12`, the “fold change (FC)” value was 1.15.
